Measurements reported in patent US20140323500A1, “NADPH OXIDASE 4 INHIBITORS AND USE THEREOF” (GENKYOTEX SA, priority 2011, published 2014).

Target: T1, human Nox2 (Homo sapiens, UniProt P04839)
T1 construct: host or cells: T-REx-CHO (hNOX2 T-REx-CHO), tetracycline-induced; membrane fraction
T1 sequence (P04839 2-570 limits assumed): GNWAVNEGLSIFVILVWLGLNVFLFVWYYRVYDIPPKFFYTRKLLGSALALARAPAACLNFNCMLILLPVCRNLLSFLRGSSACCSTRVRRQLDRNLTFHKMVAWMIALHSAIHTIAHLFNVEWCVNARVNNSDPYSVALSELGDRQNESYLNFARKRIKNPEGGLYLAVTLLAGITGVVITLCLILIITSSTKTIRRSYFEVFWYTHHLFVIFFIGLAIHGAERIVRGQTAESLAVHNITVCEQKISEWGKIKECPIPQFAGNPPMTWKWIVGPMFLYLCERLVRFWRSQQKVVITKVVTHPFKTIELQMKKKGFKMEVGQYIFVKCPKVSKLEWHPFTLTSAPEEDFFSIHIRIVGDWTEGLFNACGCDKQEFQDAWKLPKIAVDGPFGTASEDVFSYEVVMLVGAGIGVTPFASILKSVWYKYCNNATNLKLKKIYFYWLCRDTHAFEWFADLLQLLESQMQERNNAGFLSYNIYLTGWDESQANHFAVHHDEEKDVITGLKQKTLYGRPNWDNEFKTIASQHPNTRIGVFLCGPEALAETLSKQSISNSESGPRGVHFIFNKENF
T1 sequence (P13498 2-195 partner limits assumed): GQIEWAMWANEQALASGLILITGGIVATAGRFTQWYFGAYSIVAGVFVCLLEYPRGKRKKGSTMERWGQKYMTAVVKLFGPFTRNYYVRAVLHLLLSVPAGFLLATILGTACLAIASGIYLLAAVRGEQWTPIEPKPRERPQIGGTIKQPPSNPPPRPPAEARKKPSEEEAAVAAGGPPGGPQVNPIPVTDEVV
Test: ROS production by membranes expressing human Nox2, cell-free Amplex Red assay
Format: biochemical
Settings: cell-free membranes, Amplex Red; Cheng-Prusoff; average of at least three experiments in triplicate; read-out: Ki hNox2
Method in brief: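 Membranes from tetracycline-induced (1 μg/ml, 24 h) T-REx-CHO cells stably expressing hNox2 with p22 and cofactors, incubated in PBS with Amplex Red, HRP and cofactors; NADPH starts ROS production. Compounds 1 nM–100 μM, 20 min at 37 °C, then fluorescence (544/590 nm) read for 10 min; Ki by Cheng-Prusoff.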

Ki: 813 nM
Structure (SMILES): COc1ccc(-c2c3c(=O)n(-c4ccccc4OC)[nH]c3cc(=O)n2Cc2cccnc2)c(F)c1 [Compound (1), 4-(2-fluoro-4-methoxyphenyl)-2-(2-methoxyphenyl)-5-(pyridin-3-ylmethyl)-1H-pyrazolo[4,3-c]pyridine-3,6(2H,5H)-dione]
